Four molecules from patent publication US12390437B2, “Itaconic acid derivatives and uses thereof intreating an inflammatory disease or a disease associated with an undesirable immune response” (Sitryx Therapeutics Limited, priority 2019, dated 2025) can be followed below.

pIC50: −log10 of the molar value. Structures can show the parent of a compound that is named as a salt.

This assay has as its system IL-6 cytokine output from isolated primary human monocytes. Description: Primary human monocyte AlphaLISA IL-6 cytokine assay. It counts as cell-based. To be noted: CD14+ primary human monocytes, LPS 24 hr then Nigericin 1 hour. As to the method:
Measuring Inhibitory Effects on IL-1β and IL-6 Cytokine Output from Isolated Primary Human Monocytes
The cytokine inhibition profiles of compounds of formula (IW-1) were determined in a CD14^+ isolated primary human monocyte cell assay. All assays were performed in RPMI-1640 growth medium (Gibco), supplemented with heat-inactivated fetal bovine serum (FBS) and 1% penicillin-streptomycin unless specified otherwise. The IL-1β and IL-6 cytokine inhibition assays were each run in a background of isolated primary human monocyte cells as described below. All reagents described were from Sigma-Aldrich unless specified otherwise. Compounds were prepared as 100 mM DMSO stocks.
Primary peripheral blood mononuclear cells (PBMCs) were isolated from human whole blood. Following PBMC isolation, a CD14^+ monocyte isolation step was conducted whereby CD14^+ magnetic beads (Miltenyi Biotec) were incubated for 15 minutes with the PBMC suspension that was previously treated with ice cold T-cell isolation buffer (PBS, 0.5% BSA, 2 mM EDTA). Following bead incubation, the treated cell suspension was passed through a magnetic separation column designed to positively select for magnetically labelled cells. The isolated CD14^+ monocytes were subsequently plated at the appropriate cell density for the assay, prior to compound treatment on the day of plating. Working concentrations of compounds were prepared separately in RPMI-1640 only growth medium and pre-incubated with the cells for 30 minutes (37° C./5% CO2). Following the 30 minute compound pre-incubation, primary monocytes were treated with an appropriate concentration of LPS and subsequently incubated for a 24 hr period (37° C./5% CO2). An appropriate final concentration of Nigericin was then dispensed into the primary monocyte plates and incubated for 1 hour (37° C./5% CO2) before monocyte supernatants were harvested and collected in separate polypropylene 96-well holding plates prior to commencing the AlphaLISA cytokine assay.
Reagents from each of the IL-1β and IL-6 commercial kits (Perkin Elmer) were prepared and run according to the manufacturer's instructions. Subsequently, fluorescence signal was measured in a microplate reader (EnVision® Multilabel Reader, Perkin Elmer).
Percentage inhibition was calculated per cytokine by normalising the sample data to the high and low controls used within each plate (+/−LPS respectively). Percentage inhibition was then plotted against compound concentration and the 50% inhibitory concentration (IC50) was determined from the resultant concentration-response curve.
For orientation: In Alpha technology, singlet oxygen from a donor bead excites a nearby acceptor bead.

For `C=C(CC(=O)OCCCCCCCC)C(=O)OCCC#N` [Example 1, 1-(2-cyanoethyl) 4-octyl 2-methylenesuccinate], the pIC50 is 4.57.
In the case of `C=C(CC(=O)OCCCCCCCC)C(=O)OCCN1C(=O)CCC1=O` [Example 9, 1-(2-(2,5-dioxopyrrolidin-1-yl)ethyl) 4-octyl 2-methylenesuccinate], the pIC50 is 4.97.
In turn, `C=C(CC(=O)OCCCCCCCC)C(=O)OCCS(C)(=O)=O` [Example 2, 1-(2-(methylsulfonyl)ethyl) 4-octyl 2-methylenesuccinate] showed a pIC50 of 4.88.
Take `COC(=O)/C=C/C(=O)OC` [dimethyl fumarate, reference compound]: the pIC50 is 4.80.

As usually defined, the pIC50 is the IC50 on a negative log10 scale, so that one unit is a factor of ten. Lower therefore signals a high IC50.
